Tests used:
Assay type in all cases: cell-based, human
[1] = tested on: retinoid-inducible genes EPLIN, UBD, IGFBP3, TGFB1 and TRIM31 in MCF-7 cells (subline MCF-7 3′SS6); assay: real-time RT-PCR (QPCR) of retinoid-inducible gene expression, 2 days treatment; conditions: for Fold induction EPLIN / Fold induction IGFBP3 / Fold induction TGFBI / Fold induction TRIM31 / Fold induction UBD: 2 days, MCF-7
Excerpt: The following compounds were obtained from Ligand Pharmaceuticals (San Diego, Calif.). LGD1550 is a pan-RAR agonist. LGD1268 is a pan-RXR agonist. LG100815 is a pan-RAR antagonist. LG101208 is a pan-RXR antagonist. The LG100815 compound is a specific RAR antagonist that binds to RAR, but fails to activate its Retinoic Acid Responsive Element (RARE)-dependent transcription transactivation function (see Lee et al, Mol. Cell Biol. 19: 1973-1980 (1999)). Also used was all-trans retinoic acid (RA), the most commonly used RAR agonist. To determine how these compounds affect the expression of retinoid-inducible growth inhibitory genes EPLIN, UBD, IGFBP3 and TGFB1, as well as TRIM31 gene that contains a putative RARE element in its promoter, MCF-7 cells (subline MCF-7 3′SS6) were treated with individual compounds or their combinations for 2 days, and RNA was extracted by standard procedures. In the initial assays, gene expression was analyzed by semi-quantitative reverse transcription-PCR (RT-PCR), as described in Dokmanovic et al., Cancer Biology & Therapy 1:24-27 (2002). In subsequent assays, the initial results were confirmed, expanded and quantitated by real-time RT-PCR (QPCR), using Applied BioSystems 7900HT real-time PCR instrument. β-actin was used as a normalization standard.
cDNA was prepared by reverse transcription with random primer using 4 μg total RNA. 5 μl SYBR Green PCR Master Mix (Applied Biosystems) was mixed with […] cDNA and 0.8 pmol of gene-specific primers and brought up to 10 μl with ultra pure H2O in 384-well optical plates. For amplification, reaction mixtures were heated for 2 min at 50° C. and 10 min at 95° C., followed by 40 cycles of two-step PCR consisting of 15 sec at 95° C. and 1 min at 60° C., to construct dissociation curves and verify that single PCR products were obtained. PCR products were also analyzed by gel electrophoresis to confirm that a single product of the expected size was amplified. […] The comparative CT method for relative quantitation of gene expression described by Applied Biosystems was used to determine expression levels for target genes. Experiments were carried out in triplicate for each data point. Sequence Detection Systems software version 2.1 (Applied Biosystems) and Microsoft Excel were used for data analysis.

MCF-7 cells = assay: senescence-associated β-galactosidase (SA-β-gal) positive cells; conditions: 7-day treatment (FIG. 3 legend: 8 days); concentrations as in FIG. 2
Excerpt: The bars represent percentages of SA-β-gal+ cells after 8 days of treatment with the indicated compounds (in triplicate). The compounds were used at the same concentrations as in FIG. 2.
To test this, we have analyzed the effects of different compounds on the growth of MCF-7 cells, as measured by the cell number after 7 days exposure to the compounds (FIG. 2) and on the fraction of cells expressing the senescence-associated β-galactosidase activity (SA-β-gal), a marker of senescence, after 7-day treatment with the compounds (FIG. 3).

[2] = tested on: DR5 RARE-containing promoter in MCF-7 cells; assay: DR5-luciferase transient transfection assay (RARE-dependent transcription); conditions: 100 nM, 24 hrs
Method: The assays were carried out in triplicate. RA is all-trans retinoic acid. LGD1550 is a pan-RAR agonist. LG100815 is a pan-RAR antagonist.
To confirm the ability of LG100815 to antagonize RARE-dependent induction of transcription analysis of firefly luciferase expression from a RARE-containing artificial promoter DR5 (Stratagene, catalog number 240119) was performed. Cells were plated to the density of 3×10^5 in P60 24 hrs before transient transfection. DR5 reporter plasmid (4 μg) was mixed with the SV40-driven-Renilla luciferase control plasmid (0.04 μg) and transfected using Lipofectamine Plus (Life Technologies/Invitrogen, Carlsbad, Calif.) as described by the manufacturer. 3 hrs after transfection, cells were rinsed three times with PBS, trypsinized and replated in a 12-well plate to the density of 5×10^4 cells per well. Retinoid agonists and antagonists were added 48 hrs later, and the luciferase assay was performed after another 24 hrs.

CC(/C=C/C=C(\C)c1cc(C(C)(C)C)cc(C(C)(C)C)c1)=C\C(=O)O [LGD1550]
ratio of the fold-induction of TGFB1 relative to TRIM31 ([1]; 100 nM): 0.12
Fold induction EPLIN ([1]; 100 nM): 4.2 ± 0.8 fold
Fold induction IGFBP3 ([1]; 100 nM): 4.2 ± 2.0 fold
Fold induction TGFBI ([1]; 100 nM): 5.1 ± 0.6 fold
Fold induction TRIM31 ([1]; 100 nM): 42.7 ± 1.3 fold
Fold induction UBD ([1]; 100 nM): 9.5 ± 0.2 fold
ratio of the fold-induction of TGFB1 relative to TRIM31 ([1]; 1 μM): 0.12
Fold induction EPLIN ([1]; 1 μM): 3.2 ± 0.3 fold
Fold induction IGFBP3 ([1]; 1 μM): 3.7 ± 0.7 fold
Fold induction TGFBI ([1]; 1 μM): 3.5 ± 0.4 fold
Fold induction TRIM31 ([1]; 1 μM): 30.3 ± 0.7 fold
Fold induction UBD ([1]; 1 μM): 7.7 ± 1.1 fold
ratio of the fold-induction of TGFB1 relative to TRIM31 ([1]; 10 μM): 0.12
Fold induction EPLIN ([1]; 10 μM): 4.9 ± 2.5 fold
Fold induction IGFBP3 ([1]; 10 μM): 2.8 ± 1.6 fold
Fold induction TGFBI ([1]; 10 μM): 5.6 ± 0.1 fold
Fold induction TRIM31 ([1]; 10 μM): 45.0 ± 1.4 fold
Fold induction UBD ([1]; 10 μM): 7.3 ± 1.1 fold
effect on expression of the five genes (IGFBP3, EPLIN, UBD, TGFB1, TRIM31) ([1]; summary of Table 2, MCF-7): induced all five genes to approximately the same extent as RA
induction of senescent phenotype (SA-β-gal+ cells) (MCF-7 cells): induced SA-β-gal to an extent similar to that of RA
induction of luciferase expression from DR5 RARE-containing promoter [2]: approximately 50 fold
